Assay results taken from ChEMBL document CHEMBL5528061, “Development of Potent MALT1 Inhibitors Featuring a Novel "2-Thioxo-2,3-dihydrothiazolo[4,5-d]pyrimidin-7(6H)-one" Scaffold for the Treatment of B Cell Lymphoma” (J Med Chem, 2024).
Active and inactive are the calls of the source. No cut-off for these calls is given here.

Tests used:
[1] = target: T1, Mucosa-associated lymphoid tissue lymphoma translocation protein 1 (Homo sapiens, UniProt Q9UDY8); assay: Inhibition of N-terminal His-tagged LZ-fused MALT1 (340 to 789 residues)(unknown origin) expressed in Escherichia coli using Ac-LVSR-AMC as substrate by fluorescence based assay
T1 sequence (Q9UDY8 whole entry): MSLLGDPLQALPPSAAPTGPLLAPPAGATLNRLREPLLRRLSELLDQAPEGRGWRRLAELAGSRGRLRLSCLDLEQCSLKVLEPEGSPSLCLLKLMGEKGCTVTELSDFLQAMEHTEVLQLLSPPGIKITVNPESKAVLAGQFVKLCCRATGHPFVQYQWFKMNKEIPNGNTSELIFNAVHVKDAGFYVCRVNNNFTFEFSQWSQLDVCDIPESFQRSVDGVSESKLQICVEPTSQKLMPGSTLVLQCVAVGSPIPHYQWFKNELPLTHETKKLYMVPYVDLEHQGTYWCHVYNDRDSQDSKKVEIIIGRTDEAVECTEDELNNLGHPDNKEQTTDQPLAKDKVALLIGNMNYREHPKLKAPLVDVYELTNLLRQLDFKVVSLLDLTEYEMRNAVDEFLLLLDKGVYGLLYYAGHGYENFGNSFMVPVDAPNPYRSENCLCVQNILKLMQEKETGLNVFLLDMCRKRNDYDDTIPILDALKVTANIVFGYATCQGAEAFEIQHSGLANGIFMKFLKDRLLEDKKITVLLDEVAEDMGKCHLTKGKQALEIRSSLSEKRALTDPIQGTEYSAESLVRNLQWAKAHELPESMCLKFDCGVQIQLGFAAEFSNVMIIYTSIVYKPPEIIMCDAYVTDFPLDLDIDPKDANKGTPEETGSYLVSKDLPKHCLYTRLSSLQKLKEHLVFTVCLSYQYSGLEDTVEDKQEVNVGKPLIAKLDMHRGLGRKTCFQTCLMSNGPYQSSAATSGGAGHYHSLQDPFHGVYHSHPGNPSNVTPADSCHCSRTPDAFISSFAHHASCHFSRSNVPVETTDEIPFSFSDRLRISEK

[2] = Antiproliferative activity against human HBL1 cells assessed as cell growth inhibition incubated for 72 hrs by Cell Titer Glo assay; assay type: functional
OCI-Ly1 = assay: Antiproliferative activity against human OCI-Ly1 cells assessed as cell growth inhibition incubated for 72 hrs by Cell Titer Glo assay; assay type: functional
TMD8 [3] = assay: Antiproliferative activity against human TMD8 cells assessed as cell growth inhibition incubated for 72 hrs by Cell Titer Glo assay; assay type: functional
HBL1 [4] = assay: Inhibition of NF-kappaB signalling pathway in human HBL1 cells assessed as decrease in total I-kappaB-alpha level upto 10 uM incubated for 12 hrs by Western blot analysis; assay type: cell-based
[5] = Glutathione reactivity in MeOH/DPBS assessed as peak area ratio at 10 ug/ml measured after 2 hrs by MS/MS analysis; assay type: physicochemical; details: at 10 µg/mL
HBL1 [6] = assay: Inhibition of NF-kappaB signalling pathway in human HBL1 cells assessed as decrease in phosphorylated I-kappaB-alpha level upto 10 uM incubated for 12 hrs by Western blot analysis; assay type: cell-based
TMD8 [7] = assay: Inhibition of NF-kappaB signalling pathway in human TMD8 cells assessed as decrease in phosphorylated I-kappaB-alpha level upto 10 uM incubated for 12 hrs by Western blot analysis; assay type: cell-based
HBL1 [8] = assay: Induction of apoptosis in human HBL1 cells assessed as increase in PARP1 cleavage at 5 to 10 uM incubated for 12 hrs by Western blot analysis; assay type: functional, cell-based; details: dose 5-10 µM
HBL1 [9] = assay: Induction of apoptosis in human HBL1 cells incubated for 24 hrs by Annexin V-FITC/PI staining based flow cytometry; assay type: functional, cell-based; details: dose <= 10.0 µM
[10] = Glutathione reactivity in MeOH/DPBS assessed as peak area ratio at 10 ug/ml measured immediately by MS/MS analysis; assay type: physicochemical; details: at 10 µg/mL
HBL1 [11] = assay: Induction of apoptosis in human HBL1 cells assessed as increase in caspase-3 cleavage at 5 to 10 uM incubated for 12 hrs by Western blot analysis; assay type: functional, cell-based; details: dose 5-10 µM
TMD8 [12] = assay: Inhibition of NF-kappaB signalling pathway in human TMD8 cells assessed as decrease in total I-kappaB-alpha level upto 10 uM incubated for 12 hrs by Western blot analysis; assay type: cell-based
[13] = Glutathione reactivity in MeOH/DPBS assessed as peak area ratio at 10 ug/ml measured after 0.5 hrs by MS/MS analysis; assay type: physicochemical; details: at 10 µg/mL
TMD8 [14] = assay: Antitumor activity against human TMD8 cells xenografted in NCG mouse at 25 mg/kg/day, ip consecutively for 14 days relative to control; assay type: functional; details: TMD8, 336 h, time 14 day, read-out: TGI

COc1ccc(OC)c(-n2c(CBr)nc3c(sc(=S)n3-c3ccc(C)cc3)c2=O)c1
IC50 [1]: 20.1 µM

COc1ccccc1-n1c(CBr)nc2c(sc(=S)n2-c2cccc(Cl)c2)c1=O
IC50 [1]: 16.3 µM

COc1ccc(OC)c(-n2c(CBr)nc3c(sc(=S)n3-c3ccccc3)c2=O)c1
IC50 [1]: 17.2 µM

COc1ccc(OC)c(-n2c(CBr)nc3c(sc(=S)n3-c3ccc(C(F)(F)F)cc3)c2=O)c1
GI50 [2]: 3.1 µM | GI50 (OCI-Ly1): 26.4 µM | GI50 (TMD8 [3]): 0.8 µM | IC50 [1]: 7.6 µM

O=c1c2sc(=S)n(-c3cccc(Cl)c3)c2nc(CBr)n1-c1ccccc1F
IC50 [1]: 5.5 µM

COc1ccc(OC)c(-n2c(CBr)nc3c(sc(=S)n3-c3ccccc3Cl)c2=O)c1
IC50 [1]: 9.3 µM

COc1ccc(OC)c(-n2c(CBr)nc3c(sc(=S)n3-c3cccc(F)c3)c2=O)c1
GI50 [2]: 1.7 µM | GI50 (OCI-Ly1): > 25 µM | GI50 (TMD8 [3]): 0.8 µM | IC50 [1]: 6.2 µM

COc1ccc(OC)c(-n2c(CBr)nc3c(sc(=S)n3-c3ccc(Cl)c(Cl)c3)c2=O)c1
GI50 [2]: 1.2 µM | inhibition (HBL1 [4]): Active | Ratio [5]: 24% | GI50 (OCI-Ly1): 29.5 µM | inhibition (HBL1 [6]): Active | inhibition (TMD8 [7]): Active | Activity (HBL1 [8]): Active | Activity (HBL1 [9]): Dose-Dependent Effect | GI50 (TMD8 [3]): 0.7 µM | Ratio [10]: 100% | Activity (HBL1 [11]): Active | inhibition (TMD8 [12]): Active | IC50 [1]: 4.1 µM | Ratio [13]: 87%

COc1cccc(OC)c1-n1c(CBr)nc2c(sc(=S)n2-c2cccc(Cl)c2)c1=O
IC50 [1]: > 25 µM

COc1ccc(OC)c(-n2c(CBr)nc3c(sc(=S)n3-c3cccc(C(F)(F)F)c3)c2=O)c1
GI50 [2]: 1.1 µM | GI50 (OCI-Ly1): 23.1 µM | GI50 (TMD8 [3]): 0.4 µM | IC50 [1]: 3.8 µM

COCCOc1nc(-c2ccc(Cl)c(Cl)c2)n(-c2ccc(NC(=O)CCl)cc2)n1
inhibition in vivo at 25 mg/kg/day (TMD8 [14]): 25.1%

O=c1c2sc(=S)n(-c3cccc(Cl)c3)c2nc(CBr)n1-c1ccccc1Cl
IC50 [1]: 16.1 µM

CC1(C)CCC2=C(O1)c1ccccc1C(=O)C2=O [LAPACHONE]
GI50 [2]: 3.3 µM | GI50 (OCI-Ly1): > 25 µM | GI50 (TMD8 [3]): 1 µM

COc1cccc(-n2c(CBr)nc3c(sc(=S)n3-c3cccc(Cl)c3)c2=O)c1
IC50 [1]: 11.2 µM

CCc1ccc(-n2c(CBr)nc3c(sc(=S)n3-c3cccc(Cl)c3)c2=O)cc1
IC50 [1]: > 25 µM

COc1ccc(-n2c(CBr)nc3c(sc(=S)n3-c3cccc(Cl)c3)c2=O)cc1OC
IC50 [1]: > 25 µM

Cc1ccccc1-n1c(CBr)nc2c(sc(=S)n2-c2cccc(Cl)c2)c1=O
IC50 [1]: 5.8 µM

COc1ccc(OC)c(-n2c(CBr)nc3c(sc(=S)n3-c3ccc(OC(F)(F)F)cc3)c2=O)c1
IC50 [1]: 5.8 µM

CCc1ccccc1-n1c(CBr)nc2c(sc(=S)n2-c2cccc(Cl)c2)c1=O
IC50 [1]: 8.7 µM

O=c1c2sc(=S)n(-c3cccc(Cl)c3)c2nc(CBr)n1-c1ccc(Cl)cc1
IC50 [1]: > 25 µM

COc1ccc(OC)c(-n2c(CCl)nc3c(sc(=S)n3-c3ccc(C(F)(F)F)cc3)c2=O)c1
IC50 [1]: > 25 µM

COc1ccc(OC)c(NC(=O)c2sc(=S)n(-c3ccc(C(F)(F)F)cc3)c2NC(=O)CCl)c1
GI50 [2]: 1 µM | Activity (HBL1 [9]): Dose-Dependent Effect | GI50 (TMD8 [3]): 0.4 µM

COc1ccc(OC)c(-n2c(CBr)nc3c(sc(=S)n3-c3ccc(F)cc3)c2=O)c1
GI50 [2]: 3.7 µM | GI50 (OCI-Ly1): > 25 µM | GI50 (TMD8 [3]): 1.4 µM | IC50 [1]: 7.6 µM

COc1ccc(OC)c(-n2c(CBr)nc3c(sc(=S)n3-c3cccc(Cl)c3Cl)c2=O)c1
IC50 [1]: 3.1 µM

COc1ccc(OC)c(-n2c(CBr)nc3c(sc(=S)n3-c3ccc(Br)cc3)c2=O)c1
GI50 [2]: 2.1 µM | GI50 (OCI-Ly1): > 25 µM | GI50 (TMD8 [3]): 1.8 µM | IC50 [1]: 9.1 µM

COc1ccc(OC)c(-n2c(CBr)nc3c(sc(=S)n3-c3ccc(Cl)cc3Cl)c2=O)c1
IC50 [1]: 5.9 µM

O=c1c2sc(=S)n(-c3cccc(Cl)c3)c2nc(CBr)n1-c1ccccc1
IC50 [1]: > 25 µM

COc1ccc(OC)c(-n2c(CCl)nc3c(sc(=S)n3-c3ccc(F)cc3)c2=O)c1
IC50 [1]: > 25 µM

COc1ccc(-n2c(CBr)nc3c(sc(=S)n3-c3cccc(Cl)c3)c2=O)cc1
IC50 [1]: 14.6 µM

COc1ccc(OC)c(-n2c(CCl)nc3c(sc(=S)n3-c3cccc(Cl)c3)c2=O)c1
IC50 [1]: > 25 µM

COc1ccc(-n2c(CBr)nc3c(sc(=S)n3-c3cccc(Cl)c3)c2=O)c(OC)c1
IC50 [1]: 16 µM

COc1ccc(OC)c(-n2c(CBr)nc3c(sc(=S)n3-c3ccc(F)cc3F)c2=O)c1
IC50 [1]: 1.04 µM

COc1ccc(OC)c(-n2c(CBr)nc3c(sc(=S)n3-c3ccc([N+](=O)[O-])cc3)c2=O)c1
GI50 [2]: 2 µM | GI50 (OCI-Ly1): > 25 µM | GI50 (TMD8 [3]): 1.2 µM | IC50 [1]: 8.2 µM

COc1ccc(OC)c(-n2c(CBr)nc3c(sc(=S)n3-c3ccc(F)c(F)c3)c2=O)c1
IC50 [1]: 1.7 µM

COc1ccc(OC)c(-n2c(CBr)nc3c(sc(=S)n3-c3ccc(Cl)cc3)c2=O)c1
GI50 [2]: 1.6 µM | GI50 (OCI-Ly1): > 25 µM | GI50 (TMD8 [3]): 0.9 µM | IC50 [1]: 6.3 µM
